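Results reflect a 48-hour exposure of cells in 96-well plates to compound at five concentrations. GI50 marks 50% less growth.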 The source made the active and inactive calls. Cut-off read from the data, not from the text of the source: active = GI50 up to about 1.1 µM and inactive = higher.
Experiments:
Experiment in all cases: inhibition of tumour cell growth, NCI panel, 48 h
ACHN = tested on: ACHN
MDA-MB-435 = tested on: MDA-MB-435
T47D = tested on: T47D
PC-3 = tested on: PC-3
M14 = tested on: M14
DU-145 = tested on: DU-145
MOLT-4 = tested on: MOLT-4
NCI-H522 = tested on: NCI-H522
SK-OV-3 = tested on: SK-OV-3
SK-MEL-5 = tested on: SK-MEL-5
TK-10 = tested on: TK-10
SF-268 = tested on: SF-268
K562 = tested on: K562
OVCAR-5 = tested on: OVCAR-5
HOP-92 = tested on: HOP-92
HCT-116 = tested on: HCT-116
786-0 = tested on: 786-0
NCI-H460 = tested on: NCI-H460
IGROV-1 = tested on: IGROV-1
RPMI-8226 = tested on: RPMI-8226
Malme-3M = tested on: Malme-3M
MDA-MB-231 = tested on: MDA-MB-231
UACC-257 = tested on: UACC-257
SNB-75 = tested on: SNB-75
Hs-578T = tested on: Hs-578T
OVCAR-8 = tested on: OVCAR-8
CCRF-CEM = tested on: CCRF-CEM
SN12C = tested on: SN12C
KM12 = tested on: KM12
EKVX = tested on: EKVX
NCI-H23 = tested on: NCI-H23
SR = tested on: SR
MCF7 = tested on: MCF7
OVCAR-4 = tested on: OVCAR-4
SF-539 = tested on: SF-539
HCT-15 = tested on: HCT-15
SW-620 = tested on: SW-620
SF-295 = tested on: SF-295
UACC-62 = tested on: UACC-62
U-251 = tested on: U-251
A549 = tested on: A549
SNB-19 = tested on: SNB-19
HCC 2998 = tested on: HCC 2998
OVCAR-3 = tested on: OVCAR-3
HL-60 = tested on: HL-60
SK-MEL-28 = tested on: SK-MEL-28
HOP-62 = tested on: HOP-62
RXF 393 = tested on: RXF 393
BT-549 = tested on: BT-549
NCI-H226 = tested on: NCI-H226
COLO 205 = tested on: COLO 205
HT-29 = tested on: HT-29
MDA-N = tested on: MDA-N

## O=C(C/N=C(\CN(c1ccccc1)c1ccccc1)Oc1c([N+](=O)[O-])cc([N+](=O)[O-])cc1[N+](=O)[O-])N1CCNCC1
ACHN
  GI50: > 100 µM (inactive)
MDA-MB-435
  GI50: > 100 µM (inactive)
T47D
  GI50: > 100 µM (inactive)
PC-3
  GI50: > 100 µM (inactive)
M14
  GI50: > 100 µM (inactive)
DU-145
  GI50: > 100 µM (inactive)
MOLT-4
  GI50: > 100 µM (inactive)
NCI-H522
  GI50: > 100 µM (inactive)
SK-OV-3
  GI50: 622 nM (active)
SK-MEL-5
  GI50: 28.7 µM (inactive)
TK-10
  GI50: > 100 µM (inactive)
SF-268
  GI50: > 100 µM (inactive)
K562
  GI50: > 100 µM (inactive)
OVCAR-5
  GI50: > 100 µM (inactive)
HOP-92
  GI50: 67.5 µM (inactive)
HCT-116
  GI50: > 100 µM (inactive)
786-0
  GI50: > 100 µM (inactive)
NCI-H460
  GI50: > 100 µM (inactive)
IGROV-1
  GI50: 56.8 µM (inactive)
RPMI-8226
  GI50: > 100 µM (inactive)
Malme-3M
  GI50: > 100 µM (inactive)
MDA-MB-231
  GI50: > 100 µM (inactive)
UACC-257
  GI50: > 100 µM (inactive)
SNB-75
  GI50: 10.5 µM (inactive)
Hs-578T
  GI50: 25.4 µM (inactive)
OVCAR-8
  GI50: 61.7 µM (inactive)
CCRF-CEM
  GI50: > 100 µM (inactive)
SN12C
  GI50: > 100 µM (inactive)
KM12
  GI50: > 100 µM (inactive)
EKVX
  GI50: > 100 µM (inactive)
NCI-H23
  GI50: > 100 µM (inactive)
SR
  GI50: > 100 µM (inactive)
MCF7
  GI50: > 100 µM (inactive)
OVCAR-4
  GI50: > 100 µM (inactive)
SF-539
  GI50: > 100 µM (inactive)
HCT-15
  GI50: > 100 µM
SW-620
  GI50: > 100 µM (inactive)
SF-295
  GI50: > 100 µM (inactive)
UACC-62
  GI50: 43 µM (inactive)
U-251
  GI50: > 100 µM (inactive)
A549
  GI50: > 100 µM (inactive)
SNB-19
  GI50: > 100 µM (inactive)
HCC 2998
  GI50: > 100 µM (inactive)
OVCAR-3
  GI50: > 100 µM (inactive)
HL-60
  GI50: > 100 µM (inactive)
SK-MEL-28
  GI50: > 100 µM (inactive)
HOP-62
  GI50: > 100 µM (inactive)
RXF 393
  GI50: 69.8 µM (inactive)
BT-549
  GI50: > 100 µM (inactive)
NCI-H226
  GI50: > 100 µM (inactive)
COLO 205
  GI50: > 100 µM (inactive)
HT-29
  GI50: > 100 µM (inactive)
MDA-N
  GI50: > 100 µM (inactive)

From ChEMBL document CHEMBL1201862, “PubChem BioAssay data set” (2004)
